ChEMBL document CHEMBL5321227, “Lysosome-targeting phenalenones as efficient type I/II photosensitizers for anticancer photodynamic therapy” (Eur J Med Chem, 2023)
Calls of active or inactive are those of the source. The calls are words filed in the database; no cut-off is given here.

Experiments:
4T1 [1] = experiment: Antitumor activity against mouse 4T1 cells xenografted in BALB/c mouse assessed as tumor growth inhibition at 5 mg/kg,IT(Intratumoral) for 14 days followed by photoirradiation with 500 to 700nm light (0.5 W) for 6 hrs; type: functional, organism-based; details: time 14.25 day
[2] = Drug uptake BALB/c mouse xenografted with mouse 4T1 cells assessed as increase in fluorescence signal in tumor at 5 mg/kg,IT(Intratumoral) and measured for 6 to 24 hrs by fluorescence imaging analysis; type: ADME, organism-based, Neoplasm; details: in vivo, other, time 6-24 hrs
[3] = Toxicity in BALB/c mouse xenografted with mouse 4T1 cells assessed as histopathological lesion in tumor at 5 mg/kg,IT(Intratumoral) for 14 days by Hematoxylin and Eosin staining based microscopy; type: organism-based; details: in vivo, other, 336 h, time 14 day
[4] = Toxicity in BALB/c mouse xenografted with mouse 4T1 cells assessed as histopathological lesion in kidney at 5 mg/kg,IT(Intratumoral) for 14 days by Hematoxylin and Eosin staining based microscopy; type: organism-based; details: in vivo, other, 336 h, time 14 day
[5] = Drug uptake BALB/c mouse xenografted with mouse 4T1 cells assessed as maximum fluorescence intensity in tumor at 5 mg/kg,IT(Intratumoral) and measured at 6 hrs by fluorescence imaging analysis; type: ADME, organism-based, Neoplasm; details: in vivo, other
[6] = Drug uptake in kidney of BALB/c mouse xenografted with mouse 4T1 cells at 5 mg/kg,IT(Intratumoral) and measured after 6 hrs by fluorescence imaging analysis; type: ADME, organism-based; details: in vivo, other
MDA-MB-231 [7] = experiment: Anticancer activity against human MDA-MB-231 cells assessed as number of dead cells at 2.5 uM incubated for 12 hrs by calcein-AM and propidium iodide staining based flow cytometry; type: functional, cell-based
4T1 [8] = experiment: Antitumor activity against mouse 4T1 cells xenografted in BALB/c mouse assessed as tumor growth inhibition at 5 mg/kg,IT(Intratumoral) for 14 days relative to control; type: functional, organism-based; details: time 14.0 day
[9] = Stability of compound in GSH at 10 uM incubated for 30 mins by fluorescence assay; type: physicochemical; details: 0.5 h
MDA-MB-231 [10] = experiment: Anticancer activity against human MDA-MB-231 cells assessed as number of dead cells at 2.5 uM preincubated for 12 hrs followed by photoirradiation with 500 to 700nm and 12 J/cm^2 LED light for 10 mins by calcein-AM and propidium iodide staining based flow cytometry; type: functional, cell-based; details: time 12.2 hrs
[11] = Toxicity in BALB/c mouse xenografted with mouse 4T1 cells assessed as tissue destruction with large spaces in liver at 5 mg/kg,IT(Intratumoral) for 14 days followed by photoirradiation with 500 to 700nm light (0.5 W) for 6 hrs by Hematoxylin and Eosin staining based microscopy; type: organism-based; details: in vivo, other, 342 h, time 14.25 day
4T1 [12] = experiment: Anticancer activity against mouse 4T1 cells assessed as fold increase in cleaved caspase-3 protein expression at 1 uM preincubated for 2 hrs followed by photoirradiation with 500 to 700nm and 12 J/cm^2 LED light and measured after 24 hrs by Western blot analysis relative to control; type: functional; details: time 26 hrs

Drug uptake [2]: Not Active
Drug uptake [5]: Active
Drug uptake [6]: Active
Stability [9]: Stable
SMILES: O=C(CCl)Nc1c(I)cc2c3c(cccc13)C(=O)C=C2
Activity (4T1 [1]): Active
Activity [3]: Non-Toxic
Activity [4]: Non-Toxic
Activity (MDA-MB-231 [7]): inactive
Activity (4T1 [8]): Active
Activity (MDA-MB-231 [10]): Active
Activity [11]: Toxic
fold change (FC) (4T1 [12]): 3.45
